This data set is described as follows: solvent given as SMILES.

Values joined by “and” are separate entries in the source; they are usually repeats but may differ in a detail not shown here. Identical values can stand only once.

In the case of `CN1C(C(=O)Nc2ccccn2)=C([O-])c2sccc2S1(=O)=O`, the absorption maximum is, setting by setting: (in CC#N) 382 nm; (in CCCCO) 377 nm; (in CCCO) 376 nm; (in CCO) 375 nm; (in CO) 373 nm.
Consider `Cc1c(C(=O)c2ccccc2Cl)c2ccc3cccc4c5cccc6ccc1c(c65)c2c34`, for which the absorption maximum (in ClCCl) came out at 390 nm.
With `c1ccc(-n2c(-c3cccc4ccccc34)nc3c4ccccc4c4ccccc4c32)cc1`, the absorption maximum (in Cc1ccccc1) was 356 nm.
In turn, `COc1ccc(-c2cc3c(s2)-c2sc(-c4ccc(OC)cc4)cc2P(c2ccccc2)(c2ccccc2)=[O+][B-]3(c2c(C)cc(C)cc2C)c2c(C)cc(C)cc2C)cc1` showed an absorption maximum (in C1CCOC1) of 415 nm.
`CCN(CC)c1ccc(C=Cc2nc3nc4ccccc4nc3s2)c(OC)c1` gave an absorption maximum (in CO) of 485 nm.
For the setting “in ClCCl”, `CCOC(=O)c1sc(-c2ccc(-c3cc(C4CC4)c(C(=O)OCC)s3)s2)cc1C1CC1` had an absorption maximum of 395 nm.
As for `CN(C)c1cccc2c1C(=O)c1ccccc1-2`, the absorption maximum reads like this: (in C1CCCCC1) 433 nm; (in CC#N) 444 nm; (in CCO) 449 nm; (in c1ccccc1) 445 nm.
For the setting “in Cc1ccccc1”, `Cc1nn(-c2ccccc2)c2c1c(=O)oc1ccc(-n3c4ccccc4c4cc(-n5c6ccccc6c6ccccc65)ccc43)cc12` yielded an absorption maximum of 342 nm.
Turning to `CCN(CC)c1ccc(/C=N/Nc2ccc(C#N)cc2)c(O)c1`, the absorption maximum reads like this: (in CC#N) 382 nm; (in CCCCCC) 384 nm; (in CO) 368 nm; (in CS(C)=O) 391 nm; (in ClC(Cl)Cl) 373 nm.
`CC(C)(C)c1ccc2c(c1)c1cc(C(C)(C)C)ccc1n2-c1ccc(N(c2ccc(-c3ccc(-c4ccc(-c5ccc(-c6ccc(N(c7ccc(-n8c9ccc(C(C)(C)C)cc9c9cc(C(C)(C)C)ccc98)cc7)c7ccc(-n8c9ccc(C(C)(C)C)cc9c9cc(C(C)(C)C)ccc98)cc7)cc6)s5)c5nsnc45)s3)cc2)c2ccc(-n3c4ccc(C(C)(C)C)cc4c4cc(C(C)(C)C)ccc43)cc2)cc1` yielded an absorption maximum (in ClCCl) of 528 nm.
Compound `CCN(CC)c1ccc2cc(/C=C(\C#N)c3nc4ccccc4o3)c(=O)oc2c1` displayed an absorption maximum (in C1COCCO1) of 497 nm; an absorption maximum (in CC#N) of 510 nm; an absorption maximum (in CCO) of 516 nm; an absorption maximum (in CCOC(C)=O) of 506 nm; an absorption maximum (in CN(C)C=O) of 529 nm; an absorption maximum (in CO) of 509 nm. The compound further gave an absorption maximum (in CS(C)=O) of 519 nm, an absorption maximum (in Cc1ccccc1) of 500 nm and an absorption maximum (in ClCCl) of 511 nm.
For the setting “in C1CCOC1”, `CCCCCCCCCc1c2ccccc2cc2c1oc1c3oc4c5oc6cc7ccccc7cc6c5c5ccccc5c4c3c3ccccc3c21` gave an absorption maximum of 420 nm.
The same measure, in the same setting: to `N#Cc1cc(-n2c3ccccc3c3ccccc32)c(-n2c3ccccc3c3cc(Br)ccc32)cc1C#N` belongs 366 nm.
`CCCN1c2ccccc2Sc2cc(/C=C\c3cc(=O)oc4cc(O)ccc34)ccc21`: for the setting “in ClC(Cl)Cl”, the absorption maximum amounted to 422 nm.
For the setting “in ClCCl”, `CCCCCCOc1ccc(N(c2ccc(OCCCCCC)cc2)c2ccc(-c3sc(-c4ccc(N(c5ccc(OCCCCCC)cc5)c5ccc(OCCCCCC)cc5)cc4)c4nc(-c5ccc(OC)cc5)c(-c5ccc(OC)cc5)nc34)cc2)cc1` had an absorption maximum of 590 nm.
Turning to `CCCCCCN1C(=O)c2cccc3c(-c4ccc(-c5ccc6c7c(cccc57)C(=O)N(CCCCCC)C6=O)s4)ccc(c23)C1=O`, the absorption maximum (in ClC(Cl)Cl) came out at 395 nm.
For `COc1ccc(-c2ncccn2)cc1`, the absorption maximum (in ClCCl) is listed as 283 nm.
With `F[B-]1(F)n2c(c3cccc4cccc2c43)=Nc2ccc3ccccc3[n+]21`, the absorption maximum turned out to be 486 nm (in C1CCOC1); 481 nm (in CC#N); 490 nm (in CCCCCC); 490 nm (in Cc1ccccc1); 455 nm (in ClCCl).
Compound `CCOC(=O)c1c(-c2cc3ccc(OCC=C(C)C)cc3oc2=O)nn(-c2ccccc2)c1C(=O)OCC` returned an absorption maximum (in ClCCl) of 341 nm.
Under “in Cc1ccccc1”, `c1ccc2c(c1)c1ccccc1n2-c1ccc(-c2nnc(-c3ccc(-n4c5ccccc5c5ccccc54)cc3)o2)cc1` displayed an absorption maximum of 343 nm.
For the compound `COc1ccc(-c2nc(-c3ccccc3)c(-c3ccccc3)[nH]2)cc1`, the absorption maximum (in CO) stood at 305 nm.
`Cc1ccsc1-c1ccc(-c2ccc(-c3sccc3C)s2)s1`: under “in CCCCCCCCCCCCCC”, the absorption maximum stood at 382 nm.
As to `O=C1Nc2ccccc2/C1=C/C(=O)c1ccc(Cl)cc1Cl`, the absorption maximum is, setting by setting: (in C1CCCCC1) 336 nm; (in C1COCCO1) 337 nm; (in CC#N) 334 nm; (in CC(C)(C)O) 339 nm; (in CC(C)O) 339 nm; (in CCCCCC) 334 nm. In addition, the absorption maximum stood at 341 nm (in CCCCO); 335 nm (in CCOC(C)=O); 340 nm (in CN(C)C=O); 339 nm (in CO); 339 nm (in ClCCl); 340 nm (in O).
Consider `CCOC(=O)c1ccccc1-c1c2ccc(=O)cc-2oc2cc(OC(=O)[C@H](CO[Si](C)(C)C(C)(C)C)NC(=O)OC(C)(C)C)ccc12`, for which the absorption maximum (in C1CCOC1) is reported as 428 nm, the absorption maximum (in CC#N) is listed as 445 nm, the absorption maximum (in CCO) is 433 nm and the absorption maximum (in CS(C)=O) was 449 nm.
In the case of `CCOC(=O)c1c(-c2cc3ccccc3oc2=O)nn(-c2cccc(Cl)c2)c1C(=O)OCC`, the absorption maximum (in ClCCl) amounted to 325 nm.
In the case of `CC1=CC(C)=[N+]2C1=C(C)c1cccn1[B-]2(F)F`, the absorption maximum runs as follows: (in CCCCCC) 492 nm; (in CO) 486 nm; (in ClCCl) 488 nm.
Take `O=C(c1ccc(-n2c3ccccc3c3ccccc32)cc1)c1ccc(-n2c3ccccc3c3ccccc32)cc1`: the absorption maximum (in Cc1ccccc1) is 340 nm.
As to `O=C1C=C(Nc2ccccc2F)C(=O)c2ccccc21`, the absorption maximum (in CCCCCC) turned out to be 442 nm and the absorption maximum (in CO) was 448 nm.
As to `Nc1ccccc1C(=O)O`, the absorption maximum stood at 338 nm (in C1CCCCC1); 338 nm (in C1COCCO1); 336 nm (in CC#N); 336 nm (in CC(C)=O); 334 nm (in CCO); 334 nm (in CO). Besides, the absorption maximum by setting is: (in CS(C)=O) 342 nm; (in O) 290 nm and 310 nm; (in OCC(F)(F)F) 320 nm; (in c1ccccc1) 340 nm.
As to `COc1cccc2c1-c1ccccc1C2=O`, the absorption maximum by setting is: (in C1CCCCC1) 420 nm; (in CC#N) 432 nm; (in CCO) 432 nm.
`CCCCN1/C(=C/C=C/C2=[N+](C)c3ccccc3C2(C)C)C(C)(C)c2c1ccc1ccccc21` returned an absorption maximum (in CS(C)=O) of 572 nm.
For the setting “in Cc1ccccc1”, `CC1(C)c2ccccc2-c2cc3c(cc21)N(c1ccc(-c2nc(-c4ccc(N5c6ccccc6C(c6ccccc6)(c6ccccc6)c6cc7c(cc65)C(C)(C)c5ccccc5-7)cc4)nc(-c4ccc(N5c6ccccc6C(c6ccccc6)(c6ccccc6)c6cc7c(cc65)C(C)(C)c5ccccc5-7)cc4)n2)cc1)c1ccccc1C3(c1ccccc1)c1ccccc1` displayed an absorption maximum of 321 nm.
Where the note is “in ClC(Cl)Cl”, `O[Si](c1c2ccccc2cc2ccccc12)(c1c2ccccc2cc2ccccc12)c1c2ccccc2cc2ccccc12` had an absorption maximum of 402 nm.
In turn, `O=C1OC(=O)c2ccc(N(c3ccccc3)c3c4ccccc4cc4ccccc34)c3cccc1c23` displayed an absorption maximum (in C1CCOC1) of 450 nm, an absorption maximum (in CCCCCC) of 440 nm, an absorption maximum (in ClCCl) of 462 nm and an absorption maximum (in c1ccccc1) of 450 nm.
With `C(#Cc1ccc(-n2c3ccccc3c3ccccc32)cc1)c1ccccc1`, the absorption maximum reads like this: (in CC#N) 324 nm; (in CCCCC) 323 nm; (in CO) 322 nm; (in Cc1ccccc1) 329 nm; (in ClC(Cl)Cl) 326 nm; (in ClCCl) 326 nm.
With `COc1cc(OC)c2ccc(=O)oc2c1`, the absorption maximum by setting is: (in CC(C)O) 324 nm; (in CCO) 324 nm; (in CCOCC) 318 nm; (in CO) 324 nm; (in O) 327 nm.
For the setting “in Cc1ccccc1”, `Cc1cc(-c2nc(-c3ccccc3)nc(-c3ccccc3)n2)ccc1N1c2ccccc2C2(c3ccccc3-c3ccccc32)c2ccccc21` showed an absorption maximum of 394.19 nm.
With `c1cc2cc(c1)c1ccc3c(c1)c1cc(ccc1[C@]14OCCO[C@]31OCCO4)c1ccc3c(c1)c1cc(ccc1[C@]14OCCO[C@]31OCCO4)c1cccc2c1`, for the setting “in ClC(Cl)Cl”, the absorption maximum was found to be 260 nm.
Take `CN(C)c1ccc2nc(-c3ccccc3)c(=O)oc2c1`: the absorption maximum (in c1ccccc1) was found to be 436 nm.
Regarding `Cn1c(-c2ccc(-c3nc(-c4ccccc4)c(-c4ccccc4)n3C)cc2)nc(-c2ccccc2)c1-c1ccccc1`, under “in CC#N”, the absorption maximum is 365 nm and 334 nm.
For the compound `O=[N+]([O-])c1ccc(/C=C/c2cn(S(=O)(=O)c3ccccc3)c3ccccc23)cc1`, the absorption maximum is, setting by setting: (in CC#N) 369 nm; (in CCCCCCC) 357 nm; (in CO) 367 nm; (in O) 378 nm.
Take `CCn1c2ccccc2c2cc(-c3cc(-c4ccc5c(c4)c4ccccc4n5CC)ncn3)ccc21`: the absorption maximum is, setting by setting: (in C1CCOC1) 360 nm; (in CCOC(C)=O) 359 nm; (in CN(C)C=O) 363 nm; (in Cc1ccccc1) 360 nm; (in ClCCl) 360 nm.

The record behind these values is the Deep4Chem optical property database.
